Target: T1, murine TLR7 (Mus musculus, UniProt P58681)
T1 construct: host or cells: HEK293 (HEK-Blue mTLR7)
T1 sequence (P58681 27-1050): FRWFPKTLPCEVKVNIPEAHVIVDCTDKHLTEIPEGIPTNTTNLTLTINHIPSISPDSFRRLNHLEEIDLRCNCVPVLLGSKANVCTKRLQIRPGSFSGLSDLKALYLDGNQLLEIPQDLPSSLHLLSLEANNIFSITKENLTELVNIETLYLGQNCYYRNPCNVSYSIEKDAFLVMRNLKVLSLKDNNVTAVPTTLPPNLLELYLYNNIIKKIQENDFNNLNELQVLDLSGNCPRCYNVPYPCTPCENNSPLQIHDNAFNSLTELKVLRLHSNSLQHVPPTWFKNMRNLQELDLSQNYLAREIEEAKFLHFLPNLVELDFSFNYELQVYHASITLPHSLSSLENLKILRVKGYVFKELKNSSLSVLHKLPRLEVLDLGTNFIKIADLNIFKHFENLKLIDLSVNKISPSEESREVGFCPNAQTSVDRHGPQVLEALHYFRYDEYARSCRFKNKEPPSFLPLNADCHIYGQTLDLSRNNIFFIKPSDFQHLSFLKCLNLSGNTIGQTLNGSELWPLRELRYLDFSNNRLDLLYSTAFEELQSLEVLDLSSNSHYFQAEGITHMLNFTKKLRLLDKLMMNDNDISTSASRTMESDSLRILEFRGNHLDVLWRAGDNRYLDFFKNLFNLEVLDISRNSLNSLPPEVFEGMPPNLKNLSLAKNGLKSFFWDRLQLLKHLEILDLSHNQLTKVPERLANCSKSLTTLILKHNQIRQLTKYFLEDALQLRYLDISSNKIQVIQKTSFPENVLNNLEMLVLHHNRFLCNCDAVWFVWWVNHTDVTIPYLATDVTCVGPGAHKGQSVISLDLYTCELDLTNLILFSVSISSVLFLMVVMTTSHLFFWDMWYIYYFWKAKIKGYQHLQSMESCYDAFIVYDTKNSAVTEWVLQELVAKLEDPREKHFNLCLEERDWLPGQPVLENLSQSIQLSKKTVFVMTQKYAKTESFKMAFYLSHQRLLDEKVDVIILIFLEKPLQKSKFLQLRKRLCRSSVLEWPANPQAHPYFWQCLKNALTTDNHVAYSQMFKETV
Experiment: HEK-Blue mTLR7 NF-κB/AP-1 SEAP reporter cell assay
Format: cell-based
Details: HEK-Blue mTLR7 reporter cells, 10 μg/mL to 10 pg/ml, 24 hours, OD at 655 nm; FIGS. 2A, 2B
Procedure: Some conjugated compounds of the invention were tested for their ability to activate TLR7 and TLR2 receptor signaling. Cell-based assays were carried out using TLR7 and TLR2 reporter cell lines (InvivoGen). The reporter cell lines are engineered HEK293 cells, a human embryonic kidney cell line (ATCC, CRL-1573) that stably express either murine TLR7 (HEK-Blue™ mTLR7) or human TLR7 (HEK-Blue™ hTLR7) or murine TLR2 (HEK-Blue™ mTLR2) or human TLR2 (HEK-Blue™ hTLR2) with an NF-κB-inducible secreted embryonic alkaline phosphatase (SEAP) as the reporter gene. The SEAP reporter gene is placed under the control of the NF-κB and AP-inducible promoter. Stimulation with the corresponding TLR ligand activates NF-κB and AP-1, which induces the production of SEAP. Detection of SEAP is measured following culturing cells in HEK-Blue™ Detection media (InvivoGen). HEK-Blue™ Detection contains a SEAP substrate, which upon hydrolysis by SEAP produces a colorimetric change allowing for detection of SEAP as the protein is secreted. […] These assays were carried out using RAW-Blue™ Cells (InvivoGen), derived from RAW 264.7 mouse leukemic monocytic macrophage cell line (ATCC, CRL 2278) stably overexpressing a NF-κB/AP-1 inducible SEAP reporter constructs.
To perform the assay, cells were seeded on 96 well microliter plates at 50,000 or 100,000 cells per well for HEK-Blue™ Cells and RAW-Blue™ Cells respectively, and cultured at 37° C. in the presence of the conjugated compounds. The conjugated compounds were prepared as follows: First, stock solutions of the small molecule conjugated compounds of the invention were prepared in ethanol or water to a concentration of 10 mg/ml. A working dilution of the conjugated TLR7-TLR2 small molecules was made up in water and added to cells at a final range of concentrations from 10 μg/mL to 10 pg/ml. The working dilutions of the conjugated TLR7-TLR2 small molecules as the stated concentrations were directly added to the reporter cell lines and incubated at 37° C. for 24 hours. After 24 hours of incubation, the effect on reporter gene activity was determined by reading the OD at 655 nm using iMark™ Microplate Reader (BIO-RAD).
The conjugated compounds were tested alone for their ability to specifically activate TLR7 and TLR2, alongside the known TLR7 activators R848 or CL264 (InvivoGen) and the TLR2 agonists Pam2CSK4 or Pam3CSK4 (InvivoGen). The specificity of the TLR activity was determined by use of reporter cell lines to the other TLRs (data not shown). […] The molecules show a tendency to activate mouse TLR7 with greater sensitivity than human TLR7. […] Furthermore, dose-dependent responses of the conjugated compounds indicate significant TLR activities of TLR7 and TLR2 compared to the corresponding controls.

## CCCCCCCCCCCCCCCC(=O)OCC(CSC[C@H](N)C(=O)Nc1ccc(Cn2c(O)nc3c(N)nc(NCCCC)nc32)cc1)OC(=O)CCCCCCCCCCCCCCC (mixture of isomers) [CL401, (R)-3-(2-amino-3-(4-((6-amino-2-(butylamino)-8-hydroxy-9H-purin-9-yl)methyl)phenylamino)-3-oxopropylthio)propane-1,2-diyl dipalmitate]
  ability to activate TLR7 receptors (murine TLR7): activate TLR7 receptors
